From paper PMC3914206

Columns and labels:
[1] = target: T1, panel of 442 kinases (Homo sapiens, UniProt Q9NRH2); type: binding; details: kinase SNRK; compound concentration 10 µM
T1 construct: purchased KINOMEscan
T1 sequence (Q9NRH2 1-765): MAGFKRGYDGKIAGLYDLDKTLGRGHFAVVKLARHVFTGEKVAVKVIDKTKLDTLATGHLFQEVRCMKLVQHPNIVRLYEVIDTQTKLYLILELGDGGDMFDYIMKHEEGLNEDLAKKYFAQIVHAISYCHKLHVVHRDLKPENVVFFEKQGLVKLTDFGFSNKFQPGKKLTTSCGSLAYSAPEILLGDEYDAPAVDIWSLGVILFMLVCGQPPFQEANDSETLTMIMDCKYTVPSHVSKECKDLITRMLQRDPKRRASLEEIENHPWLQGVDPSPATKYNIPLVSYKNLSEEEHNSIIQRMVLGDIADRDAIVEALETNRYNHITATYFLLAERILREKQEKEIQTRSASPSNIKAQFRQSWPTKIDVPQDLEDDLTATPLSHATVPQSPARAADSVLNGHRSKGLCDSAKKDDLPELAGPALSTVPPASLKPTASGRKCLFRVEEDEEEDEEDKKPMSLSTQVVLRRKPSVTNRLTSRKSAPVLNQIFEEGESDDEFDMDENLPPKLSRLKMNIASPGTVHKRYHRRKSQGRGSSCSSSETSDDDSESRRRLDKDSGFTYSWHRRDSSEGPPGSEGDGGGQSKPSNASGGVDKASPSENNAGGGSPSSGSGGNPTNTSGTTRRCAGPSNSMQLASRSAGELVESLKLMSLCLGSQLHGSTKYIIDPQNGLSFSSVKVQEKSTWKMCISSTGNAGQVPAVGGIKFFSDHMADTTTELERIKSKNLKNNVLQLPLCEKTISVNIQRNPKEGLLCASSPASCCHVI
From the text: (§1) We assessed the selectivity of members of this scaffold using the KINOMEscan methodology across a near comprehensive panel of 442 kinases [[18,27]].

[2] = target: T2, panel of 442 kinases (Homo sapiens, UniProt Q9H2K8); type: binding; details: kinase TAOK3; compound concentration 10 µM
T2 construct: purchased KINOMEscan
T2 sequence (Q9H2K8 1-898): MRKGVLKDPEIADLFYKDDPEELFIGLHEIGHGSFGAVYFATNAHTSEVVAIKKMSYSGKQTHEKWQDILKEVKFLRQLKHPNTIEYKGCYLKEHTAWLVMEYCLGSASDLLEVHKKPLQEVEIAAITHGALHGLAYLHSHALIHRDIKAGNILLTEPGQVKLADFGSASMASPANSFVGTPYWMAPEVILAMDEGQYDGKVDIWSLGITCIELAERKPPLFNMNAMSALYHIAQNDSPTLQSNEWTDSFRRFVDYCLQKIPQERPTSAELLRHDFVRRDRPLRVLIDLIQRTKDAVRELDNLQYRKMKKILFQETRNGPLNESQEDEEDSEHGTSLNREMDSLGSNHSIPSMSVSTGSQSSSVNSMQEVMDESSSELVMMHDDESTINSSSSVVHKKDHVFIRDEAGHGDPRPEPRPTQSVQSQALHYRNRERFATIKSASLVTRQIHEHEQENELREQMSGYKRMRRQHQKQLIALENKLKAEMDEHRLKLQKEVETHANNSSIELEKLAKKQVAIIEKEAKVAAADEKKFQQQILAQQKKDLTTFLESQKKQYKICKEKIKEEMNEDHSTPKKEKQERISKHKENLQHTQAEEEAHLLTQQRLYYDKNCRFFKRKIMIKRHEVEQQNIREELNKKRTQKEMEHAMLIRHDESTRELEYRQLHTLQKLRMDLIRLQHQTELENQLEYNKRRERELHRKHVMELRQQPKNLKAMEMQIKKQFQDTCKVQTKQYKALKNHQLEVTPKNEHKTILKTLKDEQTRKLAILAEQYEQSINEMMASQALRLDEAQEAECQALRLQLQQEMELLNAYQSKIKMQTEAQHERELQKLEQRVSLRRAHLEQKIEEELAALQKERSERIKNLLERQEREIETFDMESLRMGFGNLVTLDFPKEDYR
From the text: as §1

Row | SMILES | % Ctrl, SNRK [1] | % Ctrl, TAOK3 [2]
1 | COc1cc(C(=O)N2CCC(N3CCN(C)CC3)CC2)ccc1Nc1ncc2c(n1)N(C)c1ccccc1C(=O)N2C [15 (LRRK2-IN-1)] | 94 % Ctrl | 24 % Ctrl
2 | CCOc1cc(C(=O)N2CCC(N3CCN(C)CC3)CC2)ccc1Nc1ncc2c(n1)N(C1CCCC1)c1ccccc1C(=O)N2C [Compound 26] | 52 % Ctrl | 82 % Ctrl
3 | COc1cc(C(=O)N2CCC(N3CCN(C)CC3)CC2)ccc1Nc1ncc2c(n1)N1CCc3cccc(c31)C(=O)N2C [Compound 24] |  | 100 % Ctrl
4 | COc1cc(C(=O)N2CCC(N3CCN(C)CC3)CC2)ccc1Nc1ncc2c(n1)N(C1CCCC1)c1ccccc1C(=O)N2C [Compound 25, 11-cyclopentyl-2-((2-methoxy-4-(4-(4-methylpiperazin-1-yl)piperidine-1-carbonyl)phenyl)amino)-5-methyl-5H-benzo[e]pyrimido[5,4-b][1,4]diazepin-6(11H)-one] | 72 % Ctrl | 100 % Ctrl
